How the values were obtained:
ER-β receptor = ER-β receptor (Homo sapiens, UniProt Q92731); assay: Radioligand ([3H]-estradiol) competition binding to estrogen receptor, ER-β; conditions: [3H]-estradiol 100 nM, incubated overnight at 4° C., GF/B filtration, scintillation counting; read-out: Affinity constant of ER-β receptor
Description: (§1) The activity of the compound was obtained as follows: the compound was first dissolved in DMSO and formulated into 6-8 concentration gradient solutions. The estrogen receptor and radiolabeled estradiol ([^3H]-estradiol, 100 nM) were added into the buffer and mixed to prepare a reaction solution. Each compound concentration gradient solution was separately added into the reaction solution, mixed, and incubated overnight at 4° C. so that the compound and estradiol fully reacted with the estrogen receptor. Then, the TopCount NXT Liquid Scintillation Counter (Perkin Elmer) was used for the radioactivity intensity measurement after GF/B filtration. Data processing was performed according to the detected values of each concentration to obtain the affinity constant of the compound with estrogen receptor, as shown in the following table: […]

ER-α receptor = target: T1, ER-α receptor (Homo sapiens, UniProt P03372); assay: Radioligand ([3H]-estradiol) competition binding to estrogen receptor, ER-α; conditions: [3H]-estradiol 100 nM, incubated overnight at 4° C., GF/B filtration, scintillation counting; read-out: Affinity constant of ER-α receptor
T1 sequence (P03372 1-595): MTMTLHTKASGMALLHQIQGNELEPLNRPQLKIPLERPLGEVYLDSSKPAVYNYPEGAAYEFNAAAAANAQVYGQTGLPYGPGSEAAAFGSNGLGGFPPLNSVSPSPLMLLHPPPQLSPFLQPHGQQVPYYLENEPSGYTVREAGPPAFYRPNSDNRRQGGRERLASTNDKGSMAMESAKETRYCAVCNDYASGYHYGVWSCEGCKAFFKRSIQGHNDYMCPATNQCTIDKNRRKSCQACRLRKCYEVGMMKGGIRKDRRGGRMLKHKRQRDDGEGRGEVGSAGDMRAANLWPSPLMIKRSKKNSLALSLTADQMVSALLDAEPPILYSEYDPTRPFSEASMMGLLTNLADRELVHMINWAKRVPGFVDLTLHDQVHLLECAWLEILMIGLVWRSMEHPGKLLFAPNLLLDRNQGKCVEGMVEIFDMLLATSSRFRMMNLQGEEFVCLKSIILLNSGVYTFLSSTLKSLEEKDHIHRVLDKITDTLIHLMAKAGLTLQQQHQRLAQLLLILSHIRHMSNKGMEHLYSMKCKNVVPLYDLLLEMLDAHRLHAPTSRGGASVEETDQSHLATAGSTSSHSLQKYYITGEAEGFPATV
Description: as §1

ER-β receptor, sequence (Q92731 whole entry): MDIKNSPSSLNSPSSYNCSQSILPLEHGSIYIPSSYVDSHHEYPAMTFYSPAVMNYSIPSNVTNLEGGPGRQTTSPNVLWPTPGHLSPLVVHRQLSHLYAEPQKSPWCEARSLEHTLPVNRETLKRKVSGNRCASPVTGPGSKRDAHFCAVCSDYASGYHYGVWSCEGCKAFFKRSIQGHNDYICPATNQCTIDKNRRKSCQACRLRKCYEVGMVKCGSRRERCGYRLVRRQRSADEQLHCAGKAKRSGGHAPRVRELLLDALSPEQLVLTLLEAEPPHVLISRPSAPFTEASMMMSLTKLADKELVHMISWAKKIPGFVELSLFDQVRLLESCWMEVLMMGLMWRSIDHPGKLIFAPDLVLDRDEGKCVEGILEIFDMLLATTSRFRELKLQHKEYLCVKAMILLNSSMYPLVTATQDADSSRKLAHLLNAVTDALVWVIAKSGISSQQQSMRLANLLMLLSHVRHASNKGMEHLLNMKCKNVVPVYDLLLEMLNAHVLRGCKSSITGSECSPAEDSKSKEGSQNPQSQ

Ki (ER-β receptor) [nM]	Ki (ER-α receptor) [nM]	Structure (SMILES)
1500	3600	O=c1c2c(O)cc(O)c(Br)c2cnn1-c1ccc(O)cc1
10	98	CCc1nn(-c2ccc(O)cc2)c(=O)c2c(O)cc(O)cc12
8	76	Cc1nn(-c2ccc(O)cc2)c(=O)c2c(O)cc(O)cc12
105	1200	O=c1c2c(O)cc(O)cc2cnn1-c1ccc(O)cc1
